# According to PubChem BioAssay AID1963434 (Molecular Pharmacology Branch, DTP, NCI, 2024):
# Test system: 755483-174-R-J1-PDC complex spheroid growth, percent test/control
# Assay: Anticancer human tumor 755483-174-R-J1-PDC patient-derived rhabdomyosarcoma cell line growth inhibition [Asc]
# Conditions: for IC50: curve of first compound; for viability, T/C: stronger effect = lower value
# Outline: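 Stromal components (HUVEC and hMSC) are co-assembled with the cancer cells into multicellular spheroids. Drugs are then added singly or paired, at concentrations falling by half-log increments from a clinically achievable maximum, capped at 10 microM without known Cmax.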
# [1] = second compound 0.01 µM, first compound 0.00316 µM
# [2] = second compound 0.01 µM, first compound 0.01 µM
# [3] = second compound 0.01 µM, first compound 0.0316 µM
# [4] = second compound 0.01 µM, first compound 0.1 µM
# [5] = second compound 0.01 µM, first compound 0.316 µM
# [6] = second compound 0.01 µM, first compound 1 µM
# [7] = second compound 0.0316 µM, first compound 0.00316 µM
# [8] = second compound 0.0316 µM, first compound 0.01 µM
# [9] = second compound 0.0316 µM, first compound 0.0316 µM
# [10] = second compound 0.0316 µM, first compound 0.1 µM
# [11] = second compound 0.0316 µM, first compound 0.316 µM
# [12] = second compound 0.0316 µM, first compound 1 µM
# [13] = second compound 0.1 µM, first compound 0.00316 µM
# [14] = second compound 0.1 µM, first compound 0.01 µM
# [15] = second compound 0.1 µM, first compound 0.0316 µM
# [16] = second compound 0.1 µM, first compound 0.1 µM
# [17] = second compound 0.1 µM, first compound 0.316 µM
# [18] = second compound 0.1 µM, first compound 1 µM
# [19] = second compound 0.316 µM, first compound 0.00316 µM
# [20] = second compound 0.316 µM, first compound 0.01 µM
# [21] = second compound 0.316 µM, first compound 0.0316 µM
# [22] = second compound 0.316 µM, first compound 0.1 µM
# [23] = second compound 0.316 µM, first compound 0.316 µM
# [24] = second compound 0.316 µM, first compound 1 µM
# [25] = second compound 1 µM, first compound 0.00316 µM
# [26] = second compound 1 µM, first compound 0.01 µM
# [27] = second compound 1 µM, first compound 0.0316 µM
# [28] = second compound 1 µM, first compound 0.1 µM
# [29] = second compound 1 µM, first compound 0.316 µM
# [30] = second compound 1 µM, first compound 1 µM
# 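Note: spheroids exposed to compounds for seven days before readout.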
smiles,measurement,setting,value
CCN1CCN(Cc2ccc(Nc3ncc(F)c(-c4cc(F)c5nc(C)n(C(C)C)c5c4)n3)nc2)CC1 + CNC(C)C(=O)NC1CN(S(=O)(=O)c2cccc(S(=O)(=O)N3CCC4CCC(C(=O)NC(c5ccccc5)c5ccccc5)N4C(=O)C(NC(=O)C(C)NC)C3)c2)CCC2CCC(C(=O)NC(c3ccccc3)c3ccccc3)N2C1=O,IC50,second compound 0.01 µM,< 3.16 nM
same,IC50,second compound 0.0316 µM,< 3.16 nM
same,IC50,second compound 0.1 µM,> 1000 nM
same,IC50,second compound 0.316 µM,< 3.16 nM
same,IC50,second compound 1 µM,< 3.16 nM
same,"viability, T/C",[1],31.1%
same,"viability, T/C",[2],66%
same,"viability, T/C",[3],53.4%
same,"viability, T/C",[4],54.2%
same,"viability, T/C",[5],61%
same,"viability, T/C",[6],74.4%
same,"viability, T/C",[7],43.8%
same,"viability, T/C",[8],33.8%
same,"viability, T/C",[9],40.6%
same,"viability, T/C",[10],40.5%
same,"viability, T/C",[11],63.8%
same,"viability, T/C",[12],69.5%
same,"viability, T/C",[13],58.5%
same,"viability, T/C",[14],37.7%
same,"viability, T/C",[15],55.4%
same,"viability, T/C",[16],59.5%
same,"viability, T/C",[17],47.8%
same,"viability, T/C",[18],57.5%
same,"viability, T/C",[19],16.2%
same,"viability, T/C",[20],37.3%
same,"viability, T/C",[21],40.9%
same,"viability, T/C",[22],31%
same,"viability, T/C",[23],47.5%
same,"viability, T/C",[24],39.9%
same,"viability, T/C",[25],32.1%
same,"viability, T/C",[26],18.2%
same,"viability, T/C",[27],26.8%
same,"viability, T/C",[28],18.6%
same,"viability, T/C",[29],26.1%
same,"viability, T/C",[30],32.3%
NC(=O)C(=Cn1cnc(-c2cc(C(F)(F)F)cc(C(F)(F)F)c2)n1)c1cncnc1 + CNC(C)C(=O)NC1CN(S(=O)(=O)c2cccc(S(=O)(=O)N3CCC4CCC(C(=O)NC(c5ccccc5)c5ccccc5)N4C(=O)C(NC(=O)C(C)NC)C3)c2)CCC2CCC(C(=O)NC(c3ccccc3)c3ccccc3)N2C1=O,IC50,second compound 0.01 µM,2.6 nM
same,IC50,second compound 0.0316 µM,1.67 nM
same,IC50,second compound 0.1 µM,< 0.949 nM
same,IC50,second compound 0.316 µM,< 0.949 nM
same,IC50,second compound 1 µM,< 0.949 nM
same,"viability, T/C","second compound 0.01 µM, first compound 0.000949 µM",73.8%
same,"viability, T/C","second compound 0.01 µM, first compound 0.003 µM",46.7%
same,"viability, T/C","second compound 0.01 µM, first compound 0.00949 µM",15.2%
same,"viability, T/C","second compound 0.01 µM, first compound 0.03 µM",5.78%
same,"viability, T/C","second compound 0.01 µM, first compound 0.0949 µM",4.79%
same,"viability, T/C","second compound 0.01 µM, first compound 0.3 µM",3.74%
same,"viability, T/C","second compound 0.0316 µM, first compound 0.000949 µM",63.4%
same,"viability, T/C","second compound 0.0316 µM, first compound 0.003 µM",36.2%
same,"viability, T/C","second compound 0.0316 µM, first compound 0.00949 µM",13.5%
same,"viability, T/C","second compound 0.0316 µM, first compound 0.03 µM",6.2%
same,"viability, T/C","second compound 0.0316 µM, first compound 0.0949 µM",6.42%
same,"viability, T/C","second compound 0.0316 µM, first compound 0.3 µM",22%
same,"viability, T/C","second compound 0.1 µM, first compound 0.000949 µM",41.2%
same,"viability, T/C","second compound 0.1 µM, first compound 0.003 µM",35.9%
same,"viability, T/C","second compound 0.1 µM, first compound 0.00949 µM",7.59%
same,"viability, T/C","second compound 0.1 µM, first compound 0.03 µM",6.43%
same,"viability, T/C","second compound 0.1 µM, first compound 0.0949 µM",4.59%
same,"viability, T/C","second compound 0.1 µM, first compound 0.3 µM",3.8%
same,"viability, T/C","second compound 0.316 µM, first compound 0.000949 µM",26.7%
same,"viability, T/C","second compound 0.316 µM, first compound 0.003 µM",21%
same,"viability, T/C","second compound 0.316 µM, first compound 0.00949 µM",22%
same,"viability, T/C","second compound 0.316 µM, first compound 0.03 µM",4.35%
same,"viability, T/C","second compound 0.316 µM, first compound 0.0949 µM",26.3%
same,"viability, T/C","second compound 0.316 µM, first compound 0.3 µM",2.93%
same,"viability, T/C","second compound 1 µM, first compound 0.000949 µM",28.7%
same,"viability, T/C","second compound 1 µM, first compound 0.003 µM",17.9%
same,"viability, T/C","second compound 1 µM, first compound 0.00949 µM",22.5%
same,"viability, T/C","second compound 1 µM, first compound 0.03 µM",2.28%
same,"viability, T/C","second compound 1 µM, first compound 0.0949 µM",3.49%
same,"viability, T/C","second compound 1 µM, first compound 0.3 µM",1.7%
O=C(c1ccc(F)c(F)c1Nc1ccc(I)cc1F)N1CC(O)([C@@H]2CCCCN2)C1 + CNC(C)C(=O)NC1CN(S(=O)(=O)c2cccc(S(=O)(=O)N3CCC4CCC(C(=O)NC(c5ccccc5)c5ccccc5)N4C(=O)C(NC(=O)C(C)NC)C3)c2)CCC2CCC(C(=O)NC(c3ccccc3)c3ccccc3)N2C1=O,IC50,second compound 0.01 µM,92.3 nM
same,IC50,second compound 0.0316 µM,27.7 nM
same,IC50,second compound 0.1 µM,< 3.16 nM
same,IC50,second compound 0.316 µM,< 3.16 nM
same,IC50,second compound 1 µM,< 3.16 nM
same,"viability, T/C",[1],49.5%
same,"viability, T/C",[2],56.7%
same,"viability, T/C",[3],51.5%
same,"viability, T/C",[4],49.9%
same,"viability, T/C",[5],29.4%
same,"viability, T/C",[6],23.4%
same,"viability, T/C",[7],56.5%
same,"viability, T/C",[8],62.9%
same,"viability, T/C",[9],36.2%
same,"viability, T/C",[10],47.8%
same,"viability, T/C",[11],41.7%
same,"viability, T/C",[12],25.1%
same,"viability, T/C",[13],38.5%
same,"viability, T/C",[14],44.7%
same,"viability, T/C",[15],38.6%
same,"viability, T/C",[16],40.3%
same,"viability, T/C",[17],23.1%
same,"viability, T/C",[18],8.23%
same,"viability, T/C",[19],35%
same,"viability, T/C",[20],25.6%
same,"viability, T/C",[21],56%
same,"viability, T/C",[22],31.4%
same,"viability, T/C",[23],20.5%
same,"viability, T/C",[24],11.3%
same,"viability, T/C",[25],23.6%
same,"viability, T/C",[26],24.4%
same,"viability, T/C",[27],25.8%
same,"viability, T/C",[28],30.4%
same,"viability, T/C",[29],17.1%
same,"viability, T/C",[30],4.97%
